Experimental data reported in US12421243B2, “Pharmaceutically effective compounds inhibiting selectively the myosin 2 isoforms” (PRINTNET KERESKEDELMI ÉS SZOLGÁLTATÓ KFT., priority 2018, dated 2025).

Tests used:
[1] = target: isolated smooth muscle myosin (UniProt P10587); assay type: biochemical, chamois; settings: for % inhibition at 5 μM (or 10 μM if racemate) Smooth: 5 μM (10 μM if racemate); for % inhibition at 5 μM (or 10 μM if racemate) Smooth / % inhibition at 50 μM (or 100 μM if racemate) Smooth: ATPase activity; for % inhibition at 50 μM (or 100 μM if racemate) Smooth: 50 μM (100 μM if racemate); for % inhibition. complete Smooth: maximum value of inhibition of ATPase activity
[2] = tested on: isolated rabbit skeletal muscle myosin (skeletal); assay: actomyosin steady state ATPase measurement, skeletal muscle myosin; assay type: biochemical; settings: for % inhibition at 5 μM (or 10 μM if racemate) Skeletal: 5 μM (10 μM if racemate); for % inhibition at 5 μM (or 10 μM if racemate) Skeletal / % inhibition at 50 μM (or 100 μM if racemate) Skeletal: ATPase activity; for % inhibition at 50 μM (or 100 μM if racemate) Skeletal: 50 μM (100 μM if racemate); for IC50: concentration required for semi-maximal inhibition of ATPase; for % inhibition. complete Skeletal: maximum value of inhibition of ATPase activity
Source text: (§1) […]; (ii) the concentration required for semi-maximal inhibition.

[3] = target: isolated smooth muscle myosin (UniProt P10587); assay type: biochemical, chamois; settings: concentration required for semi-maximal inhibition of ATPase
Source text: (ii) the concentration required for semi-maximal inhibition.

[4] = target: recombinant human non-muscle myosin 2 NM2C (Homo sapiens, UniProt Q7Z406); assay: actomyosin steady state ATPase measurement, NM2C; assay type: biochemical; settings: for IC50: concentration required for semi-maximal inhibition of ATPase; for % inhibition. complete NM2C: maximum value of inhibition of ATPase activity; for inhibition at 5 µM: read-out: % inhibition at 5 μM (or 10 μM if racemate) NM2C, 5 μM (10 μM if racemate); for inhibition at 5 µM / inhibition at 50 µM: ATPase activity; for inhibition at 50 µM: read-out: % inhibition at 50 μM (or 100 μM if racemate) NM2C, 50 μM (100 μM if racemate)
Source text: as §1

[5] = target: recombinant Dictyostelium miozin (Dictyostelium) (Dictyostelium discoideum, UniProt P08799); assay: actomyosin steady state ATPase measurement, Dictyostelium myosin; assay type: biochemical; settings: for IC50: concentration required for semi-maximal inhibition of ATPase, read-out: IC50 (μM) Dicty; for Inhibition (%) Dicty: maximum inhibition, compounds in IC50 range 1-11 μM; for % inhibition. complete Dicty: maximum value of inhibition of ATPase activity; for inhibition at 5 µM: read-out: % inhibition at 5 μM (or 10 μM if racemate) Dicty; for inhibition at 50 µM: read-out: % inhibition at 50 μM (or 100 μM if racemate) Dicty
Source text: as §1

[6] = target: T1, isolated porcine cardiac ventricular myocardium (cardiac) (Sus scrofa, UniProt P79293); assay: actomyosin steady state ATPase measurement, cardiac myosin; assay type: biochemical; settings: for IC50: concentration required for semi-maximal inhibition of ATPase; for % inhibition. complete cardiac: maximum value of inhibition of ATPase activity; for inhibition at 5 µM: read-out: % inhibition at 5 μM (or 10 μM if racemate) cardiac, 5 μM (10 μM if racemate); for inhibition at 5 µM / inhibition at 50 µM: ATPase activity; for inhibition at 50 µM: read-out: % inhibition at 50 μM (or 100 μM if racemate) cardiac, 50 μM (100 μM if racemate)
T1 construct: isolated porcine cardiac ventricular myocardium (cardiac); from tissue; host or cells: porcine cardiac ventricle
Source text: as §1

[7] = maximum inhibition, compounds in IC50 range 1-5 μM

Chain of isolated smooth muscle myosin (P10587 whole entry): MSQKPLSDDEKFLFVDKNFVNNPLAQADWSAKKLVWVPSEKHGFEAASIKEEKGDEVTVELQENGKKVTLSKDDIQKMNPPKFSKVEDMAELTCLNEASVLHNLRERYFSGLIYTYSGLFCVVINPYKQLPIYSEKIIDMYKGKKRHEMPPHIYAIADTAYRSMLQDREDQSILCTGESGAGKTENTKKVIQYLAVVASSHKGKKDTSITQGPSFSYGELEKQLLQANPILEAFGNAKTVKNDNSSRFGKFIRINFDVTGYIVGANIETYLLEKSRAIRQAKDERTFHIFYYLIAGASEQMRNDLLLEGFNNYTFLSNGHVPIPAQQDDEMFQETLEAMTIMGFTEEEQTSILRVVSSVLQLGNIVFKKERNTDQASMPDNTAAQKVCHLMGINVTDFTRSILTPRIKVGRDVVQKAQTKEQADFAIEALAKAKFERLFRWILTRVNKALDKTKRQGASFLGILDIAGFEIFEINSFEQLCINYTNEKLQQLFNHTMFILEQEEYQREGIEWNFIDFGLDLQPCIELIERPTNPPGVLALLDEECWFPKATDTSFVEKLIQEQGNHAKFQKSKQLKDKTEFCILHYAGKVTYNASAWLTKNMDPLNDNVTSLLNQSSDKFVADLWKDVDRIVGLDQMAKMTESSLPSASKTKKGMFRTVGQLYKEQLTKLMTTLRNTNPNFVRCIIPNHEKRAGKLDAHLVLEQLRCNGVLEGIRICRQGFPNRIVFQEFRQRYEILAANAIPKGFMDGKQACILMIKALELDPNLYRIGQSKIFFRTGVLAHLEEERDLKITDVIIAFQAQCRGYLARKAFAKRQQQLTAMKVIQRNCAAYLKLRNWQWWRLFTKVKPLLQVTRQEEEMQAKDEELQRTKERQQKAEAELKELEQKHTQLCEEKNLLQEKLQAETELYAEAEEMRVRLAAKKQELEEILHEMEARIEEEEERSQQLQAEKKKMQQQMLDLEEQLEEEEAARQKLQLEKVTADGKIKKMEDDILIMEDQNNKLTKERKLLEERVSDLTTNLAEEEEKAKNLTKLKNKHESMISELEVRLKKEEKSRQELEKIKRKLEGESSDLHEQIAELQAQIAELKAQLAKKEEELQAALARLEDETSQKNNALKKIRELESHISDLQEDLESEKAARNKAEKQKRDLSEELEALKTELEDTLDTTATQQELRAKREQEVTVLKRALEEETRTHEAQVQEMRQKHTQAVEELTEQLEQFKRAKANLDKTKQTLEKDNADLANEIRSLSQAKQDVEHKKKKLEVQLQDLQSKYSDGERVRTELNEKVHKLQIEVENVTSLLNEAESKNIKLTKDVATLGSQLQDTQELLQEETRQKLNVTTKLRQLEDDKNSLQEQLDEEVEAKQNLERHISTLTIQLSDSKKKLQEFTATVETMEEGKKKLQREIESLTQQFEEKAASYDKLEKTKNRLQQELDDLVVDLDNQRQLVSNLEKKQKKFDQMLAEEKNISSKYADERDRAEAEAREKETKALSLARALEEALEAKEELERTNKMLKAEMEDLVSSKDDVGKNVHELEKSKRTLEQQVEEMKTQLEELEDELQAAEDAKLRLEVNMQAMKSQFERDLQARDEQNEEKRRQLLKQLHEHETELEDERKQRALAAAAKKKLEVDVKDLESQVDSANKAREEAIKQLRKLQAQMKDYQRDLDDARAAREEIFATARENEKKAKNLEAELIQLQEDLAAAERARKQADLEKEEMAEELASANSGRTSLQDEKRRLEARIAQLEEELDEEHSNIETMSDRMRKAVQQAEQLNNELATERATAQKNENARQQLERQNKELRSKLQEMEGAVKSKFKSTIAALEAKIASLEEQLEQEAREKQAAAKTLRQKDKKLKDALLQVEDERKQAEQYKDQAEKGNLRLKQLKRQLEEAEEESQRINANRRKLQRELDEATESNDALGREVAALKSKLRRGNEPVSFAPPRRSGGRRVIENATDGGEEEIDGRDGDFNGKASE
Chain of recombinant Dictyostelium miozin (Dictyostelium) (P08799 whole entry): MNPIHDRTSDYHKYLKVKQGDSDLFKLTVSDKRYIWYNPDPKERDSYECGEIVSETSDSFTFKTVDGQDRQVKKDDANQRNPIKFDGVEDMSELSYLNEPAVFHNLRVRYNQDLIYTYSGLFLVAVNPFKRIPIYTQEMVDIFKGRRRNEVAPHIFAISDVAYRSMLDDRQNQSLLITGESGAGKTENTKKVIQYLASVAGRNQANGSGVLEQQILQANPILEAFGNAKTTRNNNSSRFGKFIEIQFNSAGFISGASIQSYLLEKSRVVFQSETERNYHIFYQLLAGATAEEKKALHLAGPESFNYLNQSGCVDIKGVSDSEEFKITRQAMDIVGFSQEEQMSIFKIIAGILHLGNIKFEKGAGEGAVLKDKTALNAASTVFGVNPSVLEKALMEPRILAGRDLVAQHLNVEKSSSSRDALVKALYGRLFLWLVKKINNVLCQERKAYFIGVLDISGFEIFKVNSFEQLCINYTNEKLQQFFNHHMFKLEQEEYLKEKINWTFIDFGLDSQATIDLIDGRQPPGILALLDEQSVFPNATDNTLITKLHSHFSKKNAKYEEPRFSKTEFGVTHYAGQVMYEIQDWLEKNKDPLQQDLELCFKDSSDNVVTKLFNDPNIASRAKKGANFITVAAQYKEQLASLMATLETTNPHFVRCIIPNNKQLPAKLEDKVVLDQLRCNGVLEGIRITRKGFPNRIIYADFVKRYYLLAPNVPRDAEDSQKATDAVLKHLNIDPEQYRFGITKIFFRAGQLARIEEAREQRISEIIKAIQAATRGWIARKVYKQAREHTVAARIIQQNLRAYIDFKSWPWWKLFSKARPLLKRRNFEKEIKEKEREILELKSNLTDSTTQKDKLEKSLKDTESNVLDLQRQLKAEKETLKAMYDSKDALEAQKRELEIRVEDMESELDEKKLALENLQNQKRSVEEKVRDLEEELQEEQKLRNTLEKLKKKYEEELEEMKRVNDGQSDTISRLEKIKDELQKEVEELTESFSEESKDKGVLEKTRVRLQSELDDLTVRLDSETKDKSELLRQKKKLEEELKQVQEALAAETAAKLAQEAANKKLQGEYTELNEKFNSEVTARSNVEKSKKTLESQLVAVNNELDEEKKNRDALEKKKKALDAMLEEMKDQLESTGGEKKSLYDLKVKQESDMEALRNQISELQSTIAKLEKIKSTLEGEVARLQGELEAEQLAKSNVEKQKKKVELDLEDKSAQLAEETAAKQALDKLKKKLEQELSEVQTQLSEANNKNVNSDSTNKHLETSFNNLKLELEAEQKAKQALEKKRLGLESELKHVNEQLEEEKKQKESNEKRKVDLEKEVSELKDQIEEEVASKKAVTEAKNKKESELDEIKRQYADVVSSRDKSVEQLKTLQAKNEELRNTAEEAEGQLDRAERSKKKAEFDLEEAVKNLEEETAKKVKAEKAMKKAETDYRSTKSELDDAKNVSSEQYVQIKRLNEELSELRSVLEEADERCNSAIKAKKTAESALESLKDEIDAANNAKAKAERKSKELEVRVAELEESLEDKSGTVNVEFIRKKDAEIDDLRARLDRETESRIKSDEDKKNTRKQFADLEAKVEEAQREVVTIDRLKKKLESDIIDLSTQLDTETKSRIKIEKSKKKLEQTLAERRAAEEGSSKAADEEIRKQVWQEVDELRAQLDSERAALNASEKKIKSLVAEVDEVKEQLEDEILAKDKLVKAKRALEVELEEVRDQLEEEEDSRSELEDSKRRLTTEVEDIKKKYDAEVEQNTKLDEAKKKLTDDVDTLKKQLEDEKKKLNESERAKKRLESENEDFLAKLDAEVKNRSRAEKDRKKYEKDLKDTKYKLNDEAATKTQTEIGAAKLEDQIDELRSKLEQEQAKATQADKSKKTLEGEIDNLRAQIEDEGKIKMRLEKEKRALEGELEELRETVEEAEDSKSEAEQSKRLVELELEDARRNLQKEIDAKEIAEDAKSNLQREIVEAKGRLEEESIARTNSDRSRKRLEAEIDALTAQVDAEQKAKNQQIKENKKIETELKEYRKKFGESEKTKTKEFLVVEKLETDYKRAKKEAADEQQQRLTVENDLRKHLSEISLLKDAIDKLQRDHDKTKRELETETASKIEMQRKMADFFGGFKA

| SMILES | % inhibition at 5 μM (or 10 μM if racemate) Smooth [1] [%] | % inhibition at 50 μM (or 100 μM if racemate) Smooth [1] [%] | % inhibition. complete Smooth [1] [%] | % inhibition at 5 μM (or 10 μM if racemate) Skeletal [2] [%] | % inhibition at 50 μM (or 100 μM if racemate) Skeletal [2] [%] | IC50 [2] [µM] | % inhibition. complete Skeletal [2] [%] | IC50 [3] [µM] | IC50 [4] [µM] | % inhibition. complete NM2C [4] [%] | inhibition at 5 µM [4] [%] | inhibition at 50 µM [4] [%] | IC50 [5] [µM] | % inhibition. complete Dicty [5] [%] | inhibition at 5 µM [5] [%] | inhibition at 50 µM [5] [%] | IC50 [6] [µM] | % inhibition. complete cardiac [6] [%] | inhibition at 5 µM [6] [%] | inhibition at 50 µM [6] [%] | also measured |
| --- | --- | --- | --- | --- | --- | --- | --- | --- | --- | --- | --- | --- | --- | --- | --- | --- | --- | --- | --- | --- | --- |
| CC(=O)c1ccc(N2CCC3(O)C(=O)c4cc(C)sc4N=C23)cc1 (stereo not drawn) [Compound 225, 12-(4-Acetylphenyl)-9-hydroxy-5-methyl-4-thia-2,12-diazatricyclo[7.3.0.0^3,7]dodeca-1,3(7),5-trien-8-one] | 68 | 96 | 100 | 93 | 95 | 0.17 | 96 | 2.2 | 2.8 | 78 | 47 | 74 | 4.1 | 100 | 64 | 97 | 2.4 | 100 | 68 | 96 | Inhibition (%) Dicty [5]: 100% |
| Cc1cc2c(s1)N=C1N(c3ccc(CC#N)cc3)CCC1(O)C2=O (stereo not drawn) [Compound 226, 2-(4-{9-Hydroxy-5-methyl-8-oxo-4-thia-2,12-diazatricyclo[7.3.0.0^3,7]dodeca-1,3(7),5-trien-12-yl}phenyl)acetonitrile] | 72 | 79 | 80 | 91 | 92 | 0.17 | 93 | 0.5 | 1.5 | 92 | 69 | 90 | 5.5 | 92 | 43 | 83 | 0.73 | 85 | 72 | 83 | Inhibition (%) Dicty [5]: 92% |
| O=C1c2ccsc2N=C2N(c3ccc(CO)cc3)CC[C@@]12O [Compound 216, (9S)-9-Hydroxy-12-[4-(hydroxymethyl)phenyl]-4-thia-2,12-diazatricyclo[7.3.0.0^3,7]dodeca-1,3(7),5-trien-8-one] | 17 | 39 | 46 | 74 | 95 | 1.6 | 98 | 8.3 | 23 | 75 | 13 | 51 | 13.3 | 74 | 20 | 58 | 2.4 | 89 | 58 | 85 | Inhibition (%) skeletal ([2]; maximum inhibition, compounds in IC50 range 1-2 μM): 98% |
| N#CCc1ccc(N2CC[C@@]3(O)C(=O)c4ccsc4N=C23)cc1 [Compound 215, (9S)-2-(4-{9-Hydroxy-8-oxo-4-thia-2,12-diazatricyclo[7.3.0.0^3,7]dodeca-1,3(7),5-trien-12-yl}phenyl)acetonitrile] | 31 | 45 | 47 | 80 | 96 | 1.1 | 98 | 2.3 | 19 | 77 | 16 | 56 | 12.1 | 78 | 23 | 63 | 5.6 | 94 | 42 | 84 | Inhibition (%) smooth [1, 7]: 47% |
| Cc1ccc(N2CC[C@@]3(O)C(=O)c4ccsc4N=C23)cc1 [Compound 233, (9S)-9-Hydroxy-12-(4-methylphenyl)-4-thia-2,12-diazatricyclo[7.3.0.0^3,7]dodeca-1,3(7),5-trien-8-one] | 29 | 70 | 83 | 92 | 98 | 0.32 | 98 | 8.8 | 2.1 | 72 | 48 | 69 | 17 | 100 | 21 | 76 | 0.82 | 88 | 74 | 87 | Inhibition (%) NM2C [4, 7]: 72% |
